For 20 compounds, Activity and IC50 results are on record in ChEMBL document CHEMBL3132810, “Novel benzofuranchromone and coumarin derivatives: synthesis and biological activity in K562 human leukemia cells” (Medchemcomm, 2013).

Calls of active or inactive are those of the source. The rule behind the calls is not given here.

Test [1] deals with K562. Description: Induction of apoptosis in human K562 cells at 50 uM after 48 hrs. The test is classed as functional.
For test [2], the system named is K562. Description: Cell cycle arrest in human K562 cells assessed as accumulation at S phase at 50 uM after 48 hrs by propidium iodide staining-based FACS -Calibur flow cytometry. The test is classed as functional. A general note: A flow cytometer gives signals particle by particle.
The subject of test [3] is K562. Description: Cell cycle arrest in human K562 cells assessed as slight accumulation at G1 phase at 50 uM after 48 hrs by propidium iodide staining-based FACS -Calibur flow cytometry. The test is classed as functional.
Test [4] concerns K562. Description: Induction of apoptosis in human K562 cells at 50 uM after 72 hrs. In kind it is functional, cell-based.
For test [5], the system named is K562. Description: Induction of apoptosis in human K562 cells at 100 uM after 72 hrs. In kind it is functional, cell-based.
Test [6] relates to K562. Nature of the test: Anticancer activity against human K562 cells assessed as growth inhibition. The test is classed as functional, cell-based.
For test [7], the system named is K562. Description: Cell cycle arrest in human K562 cells assessed as accumulation at G2 phase at 50 uM after 48 hrs by propidium iodide staining-based FACS -Calibur flow cytometry. The test is classed as functional.

As to `O=C1/C(=C/c2coc3ccccc3c2=O)Oc2cc3ccccc3cc21`, the Activity with K562 [1] is 17%. With `Cc1ccc2occ(/C=C3\Oc4ccccc4C3=O)c(=O)c2c1`, in the test on K562 [2], the outcome was Active. On to `Cc1ccc2c(c1)O/C(=C\c1coc3ccc(C)cc3c1=O)C2=O`, for which the figures for the Activity with K562 [1] and with K562 [3] were 24% and 72%, respectively. `COc1ccc2c(C=O)cc(=O)oc2c1`: the outcome in the test with K562 [4] and in the test with K562 [5] was Active. `COc1ccc(/C=C2\Oc3cc(C)ccc3C2=O)cc1`: the outcome with K562 [4] and in the test with K562 [5] was Active.

What is called IC50 is the concentration that gives 50% inhibition. With `COc1ccc(-c2cc(=O)c3cc(OC)c(OC)c(OC)c3o2)cc1O`, in the test on K562 [6], the IC50 worked out at 40 µM. `Cc1ccc2c(c1)O/C(=C\c1coc3cc(Cl)ccc3c1=O)C2=O`: the result in the test on K562 [2] was Active. Still for that read-out and setting: as for `Cc1ccc2c(c1)O/C(=C\c1coc3ccc(F)cc3c1=O)C2=O`, the entry is “Active”.

In the case of `COc1ccc2c(=O)c(/C=C3\Oc4ccccc4C3=O)coc2c1`, the Activity in the test on K562 [1] is 17%.

As for `COc1cccc2occ(/C=C3\Oc4cc5ccccc5cc4C3=O)c(=O)c12`, the Activity in the test with K562 [1] is 17%. Also, the outcome with K562 [3] was Active. For `O=C1/C(=C/c2coc3ccc(Cl)cc3c2=O)Oc2cc3ccccc3cc21`, the Activity with K562 [1] is reported as 17%. For the compound `COc1ccc(/C=C2\Oc3c(cc(OC)c(OC)c3OC)C2=O)cc1O`, the IC50 in the test with K562 [6] was 50 µM. For the compound `O=C1/C(=C/c2coc3ccccc3c2=O)Oc2ccccc21`, the Activity in the test on K562 [1] is on record as 17%. For `Cc1cc2occ(/C=C3\Oc4cc5ccccc5cc4C3=O)c(=O)c2cc1C`, the Activity in the test on K562 [1] amounted to 17%. Also, the outcome in the test on K562 [3] was Active.

Take `O=C1/C(=C/c2coc3ccc(Cl)cc3c2=O)Oc2ccccc21`: the Activity in the test on K562 [2] turned out to be 63%. Consider `COc1ccc2c(/C=C3\Oc4cc5ccccc5cc4C3=O)cc(=O)oc2c1`, for which the Activity in the test on K562 [1] came to 24%; in the test on K562 [7], 46%.

Consider `Cc1ccc2c(c1)O/C(=C\c1coc3ccc(Cl)cc3c1=O)C2=O`, for which, in the test on K562 [2], the outcome was Active. Turning to `COc1ccc2c(/C=C3\Oc4cc(C)ccc4C3=O)cc(=O)oc2c1`, the outcome in the test with K562 [4], in the test on K562 [5] and in the test with K562 [3] was Active. In the test on K562 [1], this compound came in with an Activity of 24%.

For `O=C1/C(=C/c2coc3ccc(F)cc3c2=O)Oc2ccccc21`, in the test with K562 [2], the outcome was Active.

Turning to `Cc1ccc2c(c1)O/C(=C\c1coc3ccccc3c1=O)C2=O`, the outcome in the test on K562 [2] was Active.
